Test results published in patent US12606805B2, “Tymovirus virus and virus-like particles as nanocarriers for imaging and therapeutic agents” (priority 2017, dated 2026).

Tests used:
[1] = system: A2780 (human ovarian cancer) cells; test: MTT cell viability assay, DOX-PhMV versus DOX; type: cell-based; conditions: 24 h
Procedure: All assays were carried out at least three times.

PhMV-derived VLPs = biological target: T1, PhMV-derived VLPs (Physalis mottle virus, UniProt P36351); conditions: for Number of molecules loaded per VLP: 5000-fold molar excess per particle; for Number of guest molecules loaded per VLP (affinity of the VLPs): infusion overnight at room temperature, molar excess 500 to 10,000 per VLP
T1 construct: The coat protein gene (564 bp) was inserted into the vector pRSET-A and expressed in ClearColi BL21(DE3); made in house; host or cells: E. coli ClearColi BL21(DE3)
T1 sequence (P36351 whole entry, the tested form may be a part): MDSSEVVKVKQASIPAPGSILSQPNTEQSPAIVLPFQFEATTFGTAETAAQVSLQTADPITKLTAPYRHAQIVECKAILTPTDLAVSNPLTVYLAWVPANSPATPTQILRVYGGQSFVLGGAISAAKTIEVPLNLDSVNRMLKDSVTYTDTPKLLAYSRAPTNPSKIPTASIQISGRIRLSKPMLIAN
Procedure: The VLPs were loaded with rhodamine B, fluorescein, crystal violet, MTX dihydrochloride (all Sigma-Aldrich), PS (cationic zinc ethynylphenyl porphyrin, full name 5-(4-ethynylphenyl)-10,15,20-tris)4-methylpyridin-4-ium-1-yl)porphyrin zinc(II) triiodide), or DOX hydrochloride (Indofine Chemical Company). The VLPs (1 mg/mL in KP buffer) were incubated with a molar excess of 500, 2500, 5000, or 10000 cargo molecules per particle overnight at room temperature in the dark, before purification over a 30% (w/v) sucrose cushion to remove excess reagents by ultracentrifugation at 52,000 rpm using a TLA 55 rotor (Beckman Coulter Inc.) at 4° C. for 1 h. PS-PhMV and DOX-PhMV were synthesized for further characterization using a 5000-fold molar excess.
A NanoDrop 2000 spectrophotometer (Thermo Fisher Scientific) was used to characterize the UV/visible spectra of native and modified VLPs. The dye load was determined using the protein concentration (measured using the Bradford assay), the Beer-Lambert law and the following dye-specific extinction coefficients: rhodamine B, F(553 nm)=116,000 M^−1 cm^−1; DOX, ε(496 nm)=11,500 M^−1 cm^−1; crystal violet, ε(590 nm)=87,000 M^−1 cm^−1; PS, ε(450 nm)=195,000 M^−1 cm^−1; MTX, ε(622 nm)=25,000 M^−1 cm^−1; sulfo-Cy5 NHS ester, ε(646 nm)=271,000 M^−1 cm^−1; Cy5.5-maleimide, 8(673 nm)=209,000 M^−1 cm^−1. The following molecular weights were used: PhMV=4.7×10^6 g mol^−1; rhodamine B=479.02 g mol^−1; DOX=579.98 g mol^−1; crystal violet=407.98 g mol^−1; PS=1130 g mol^−1; mitoxantrone=517.4 g mol^−1; Cy5=777.95 g mol^−1; Cy5.5=741.36 g mol^−1; Biotin NHS ester=341.38 g mol^−1; Biotin maleimide=451.54 g mol^−1.
Intact VLPs were incubated in a bathing solution containing the guest molecule at various molar excesses (500, 2500, 5000 and 10,000 molecules per VLP) in KP buffer with 10% (v/v) DMSO overnight at room temperature. After the reaction, excess guest molecules were removed by ultracentrifugation and the amount of protein and cargo was quantified by the Bradford assay and UV/visible spectroscopy, respectively. We applied the Beer-Lambert law and the specific extinction coefficient of each guest molecule to determine the number of cargo molecules per VLP (FIG. 5).

PC-3 cells [2] = test: MTT cell viability assay after photodynamic therapy
Procedure: PC-3 cells were seeded (5000 cells/100 μL RPMI 1640/well) in a 96-well plate overnight. After two PBS washes to remove unbound and dead cells, free PS, or PS-PhMV was added to the cells in triplicate at concentrations of 0.01, 0.025, 0.05, 0.1, 0.25, 0.5, 1, 2.5 and 5.0 μM PS, and incubated for 8 h. Untreated cells and cells treated with unloaded VLPs at the equivalent protein concentration to PS-PhMV particles at the highest dose of PS were also used as controls. Free particles were washed with PBS and 100 μL of fresh medium was added. The cells were then illuminated with white light for 30 min as above. In parallel, a duplicate plate was prepared and kept in the dark as a negative control. Following phototherapy, cells were incubated for another 48 h in the dark, and their viability was subsequently measured using an MTT cell proliferation assay kit (ATCC) based on the manufacturer's instructions. A Tecan Infinite 200 PRO multimode plate reader was used to measure absorbance at 570 nm, and the percent cell viability was normalized to the untreated control. All assays were carried out at least three times.

PC-3 cells [3] = test: LIVE/DEAD assay after photodynamic therapy; type: cell-based, human
Procedure: PC-3 cells were seeded (20,000 cells/500 μL RPMI/well) in a 24-well plate overnight. The cells were washed twice in PBS and incubated for 8 h in triplicates with 5.0 μM PS, 5.0 μM PS-PhMV, or the corresponding concentration of unloaded VLPs ([…] or ˜0.19 mg/mL). After washing twice in PBS, 500 μL RPMI medium was added. Photodynamic therapy was then applied using a white light source (Phillips Silhouette High Output F39T5/841 HO, Alto collection, ˜10 mW cm^−2) for 30 min (18.1 J cm^−2 at 430 nm) and cells were incubated for a further 48 h in the dark. Cell viability was determined using a LIVE/DEAD assay for mammalian cells (Thermo Fisher Scientific) following the manufacturer's procedures for cell staining, and cells were observed under a Zeiss Axio Observer Z1 motorized FL inverted microscope.

For COc1cccc2c1C(=O)c1c(O)c3c(c(O)c1C2=O)C[C@@](O)(C(=O)CO)C[C@@H]3O[C@H]1C[C@H](N)[C@H](O)[C@H](C)O1 [DOX, doxorubicin], the “IC50 (MTT)” value [1] was “equivalent”, the “Number of molecules loaded per VLP” value (PhMV-derived VLPs) was 600-800 molecules per VLP and the “Number of guest molecules loaded per VLP (affinity of the VLPs)” value (shortened to “Number of guest molecules loaded per VLP”) (PhMV-derived VLPs) was 750 molecules per particle.

For O=C1c2c(O)ccc(O)c2C(=O)c2c(NCCNCCO)ccc(NCCNCCO)c21 [MTX, mitoxantrone], the “Number of guest molecules loaded per VLP” value (PhMV-derived VLPs) was 450 molecules per particle.

C#Cc1ccc(C2=C3C=CC(=N3)C(c3cc[n+](C)cc3)=c3ccc4[n]3[Zn][n]3c2ccc3C(c2cc[n+](C)cc2)=C2C=CC(=N2)C=4c2cc[n+](C)cc2)cc1.[I-].[I-].[I-] [PS] was tested, and the “Cytotoxicity of dark controls (MTT)” value (PC-3 cells [2]; PC-3 cells kept in the dark) was “no cell killing”, the IC50 (PC-3 cells [2]; read-out: IC50 (cell killing, MTT), PC-3 cells, 8 h incubation, 30 min white light illumination) was 0.05 µM and the “Cell viability (LIVE/DEAD), dark controls” value (PC-3 cells [3]; 5.0 μM, 8 h, maintained in the dark) was 100%. The “Cell viability (LIVE/DEAD), illuminated” value (PC-3 cells [3]; 5.0 μM, 8 h, white light 30 min) was 0%, the “Cytotoxicity of dark controls (LIVE/DEAD)” value (PC-3 cells [3]; dark controls) was “no cytotoxicity” and the “Number of molecules loaded per VLP” value (PhMV-derived VLPs) was 160-180 molecules per VLP. For the same molecule, the “Number of guest molecules loaded per VLP” value (PhMV-derived VLPs) was about 200 molecules per particle.

CN(C)c1ccc(C(=C2C=CC(=[N+](C)C)C=C2)c2ccc(N(C)C)cc2)cc1 [crystal violet] was tested, and the “Number of guest molecules loaded per VLP” value (PhMV-derived VLPs) was 2000 molecules per particle.

For CCN(CC)c1ccc2c(-c3ccccc3C(=O)O)c3ccc(=[N+](CC)CC)cc-3oc2c1.[Cl-] [rhodamine B], the “Number of guest molecules loaded per VLP” value (PhMV-derived VLPs) was about 200 molecules per particle.
